From US20240226101A1, “PYRIMIDINYLAMINOBENZENES FOR LUNG CANCER TREATMENT” (Suzhou Puhe BioPharma Co., LTD., priority 2021, published 2024)
Values joined by “and” are separate entries in the source; they are usually repeats but may differ in a detail not shown here. Identical values can stand only once.

Tests used:
EGFR L861Q = EGFR L861Q (Homo sapiens, UniProt P00533, L861Q); assay: HTFR KINEASE-TK kit (Cisbio) inhibition of EGFR mutant L861Q; assay type: biochemical
Description: (§1) Compound A13 was tested against EGFR mutants: (i) three exon 20 insertions: […], D770_N771insNPG, and A763_Y764insFQEA; and (ii) one point mutation: L861Q; using an HTFR KINEASE-TK kit (Cisbio) according to the manufacturer's protocol.

EGFR A763_Y764insFQEA = EGFR A763_Y764insFQEA (Homo sapiens, UniProt P00533, INS763FQEA); assay: HTFR KINEASE-TK kit (Cisbio) inhibition of EGFR mutant A763_Y764insFQEA; assay type: biochemical
Description: as §1

EGFR V769_D770insGE = EGFR V769_D770insGE (Homo sapiens, UniProt P00533, INS769GE); assay: HTFR KINEASE-TK kit (Cisbio) inhibition of EGFR mutant V769_D770insGE; assay type: biochemical
Description: as §1

EGFR D770_N771insNPG = EGFR D770_N771insNPG (Homo sapiens, UniProt P00533, INS770NPG); assay: HTFR KINEASE-TK kit (Cisbio) inhibition of EGFR mutant D770_N771insNPG; assay type: biochemical
Description: as §1

[1] = molecular target: T1, EGFR G719S in Ba/F3 cell lines (Homo sapiens, UniProt P00533, G719S); assay: […]-GLO cell viability assay, Ba/F3 cells with EGFR G719S; assay type: cell-based
T1 construct: expressed in transfected cells; host or cells: Ba/F3

[2] = molecular target: T2, EGFR L861Q in Ba/F3 cell lines (Homo sapiens, UniProt P00533, L861Q); assay: […]-GLO cell viability assay, Ba/F3 cells with EGFR L861Q; assay type: cell-based
T2 construct: expressed in transfected cells; host or cells: Ba/F3

[3] = molecular target: T3, EGFR A763_Y764insFQEA in Ba/F3 cell lines (Homo sapiens, UniProt P00533, INS763FQEA); assay: […]-GLO cell viability assay, Ba/F3 cells with EGFR A763_Y764insFQEA; assay type: cell-based
T3 construct: expressed in transfected cells; host or cells: Ba/F3

[4] = molecular target: T4, EGFR V769_D770insASV in Ba/F3 cell lines (Homo sapiens, UniProt P00533, INS769ASV); assay: […]-GLO cell viability assay, Ba/F3 cells with EGFR V769_D770insASV; assay type: cell-based
T4 construct: expressed in transfected cells; host or cells: Ba/F3

[5] = molecular target: T5, EGFR D770_N771insSVD in Ba/F3 cell lines (Homo sapiens, UniProt P00533, INS770SVD); assay: […]-GLO cell viability assay, Ba/F3 cells with EGFR D770_N771insSVD; assay type: cell-based
T5 construct: expressed in transfected cells; host or cells: Ba/F3

[6] = molecular target: T6, EGFR H773_V774insNPH in Ba/F3 cell lines (Homo sapiens, UniProt P00533, INS773NPH); assay: […]-GLO cell viability assay, Ba/F3 cells with EGFR H773_V774insNPH; assay type: cell-based
T6 construct: expressed in transfected cells; host or cells: Ba/F3

[7] = tested on: LU0387 lung cancer PDX model; assay: Antitumor activity in subcutaneous LU0387 lung cancer PDX xenograft mouse model; assay type: in vivo; conditions: for TV (mm^3) on Day 0: Day 0 (randomization, baseline); for TV (mm^3) on Day 0 / RTV (relative tumor volume) / TV (mm^3) on Day 21: benzoate salt
Description: Compound A13 as a single agent was evaluated for lung cancer treatment in a subcutaneous LU0387 lung cancer PDX model using female Balb/c nude mice. Tumor fragments from stock mice were harvested for inoculation into mice. Each mouse was inoculated subcutaneously in the right rear flank with a PDX model LU0387 tumor fragment (2-3 mm in diameter) for tumor development.
The randomization started when the mean tumor size reached approximately 517.37 mm^3. Twenty-four mice were randomly allocated to 8 study groups, with 3 mice per group. The date of randomization was designated as Day 0.
After tumor inoculation, the mice were checked daily for morbidity and mortality. The mice were checked for any effects of tumor growth and treatments on behavior such as mobility, food and water consumption, body weight gain/loss, eye/hair matting, and any abnormalities. Mortality and observed clinical signs were recorded for each individual mouse in detail.
Tumor volumes (TV) were measured twice per week after randomization using a caliper and the volume was calculated using the formula: V=(L×W×W)/2, where V is tumor volume, L is tumor length (the longest tumor dimension), and W is tumor width (the longest tumor dimension perpendicular to L).
Compound A13 was administered orally as a benzoate salt in a citrate/phosphate buffer at pH 4.0 at 20, 40, and 80 mg/kg once daily for 21 days. The results are summarized in Table 3, where RTV represents relative tumor volume.

[8] = Pharmacokinetics in the xenograft mouse model, single oral dose; assay type: in vivo, Balb/c Mice; conditions: 80 mg/kg single oral dose
Description: Using the same xenograft mouse model, the pharmacokinetic (PK) parameters of compound A13 were determined at 80 mg/kg with a single oral dose. For each mouse, blood samples were collected at 0, 1, 2, 4, 8, 16, and 24 h after dosing.

[9] = 20 mg/kg orally once daily for 21 days
[10] = 40 mg/kg orally once daily for 21 days

T1 sequence (P00533 25-1210 G719S): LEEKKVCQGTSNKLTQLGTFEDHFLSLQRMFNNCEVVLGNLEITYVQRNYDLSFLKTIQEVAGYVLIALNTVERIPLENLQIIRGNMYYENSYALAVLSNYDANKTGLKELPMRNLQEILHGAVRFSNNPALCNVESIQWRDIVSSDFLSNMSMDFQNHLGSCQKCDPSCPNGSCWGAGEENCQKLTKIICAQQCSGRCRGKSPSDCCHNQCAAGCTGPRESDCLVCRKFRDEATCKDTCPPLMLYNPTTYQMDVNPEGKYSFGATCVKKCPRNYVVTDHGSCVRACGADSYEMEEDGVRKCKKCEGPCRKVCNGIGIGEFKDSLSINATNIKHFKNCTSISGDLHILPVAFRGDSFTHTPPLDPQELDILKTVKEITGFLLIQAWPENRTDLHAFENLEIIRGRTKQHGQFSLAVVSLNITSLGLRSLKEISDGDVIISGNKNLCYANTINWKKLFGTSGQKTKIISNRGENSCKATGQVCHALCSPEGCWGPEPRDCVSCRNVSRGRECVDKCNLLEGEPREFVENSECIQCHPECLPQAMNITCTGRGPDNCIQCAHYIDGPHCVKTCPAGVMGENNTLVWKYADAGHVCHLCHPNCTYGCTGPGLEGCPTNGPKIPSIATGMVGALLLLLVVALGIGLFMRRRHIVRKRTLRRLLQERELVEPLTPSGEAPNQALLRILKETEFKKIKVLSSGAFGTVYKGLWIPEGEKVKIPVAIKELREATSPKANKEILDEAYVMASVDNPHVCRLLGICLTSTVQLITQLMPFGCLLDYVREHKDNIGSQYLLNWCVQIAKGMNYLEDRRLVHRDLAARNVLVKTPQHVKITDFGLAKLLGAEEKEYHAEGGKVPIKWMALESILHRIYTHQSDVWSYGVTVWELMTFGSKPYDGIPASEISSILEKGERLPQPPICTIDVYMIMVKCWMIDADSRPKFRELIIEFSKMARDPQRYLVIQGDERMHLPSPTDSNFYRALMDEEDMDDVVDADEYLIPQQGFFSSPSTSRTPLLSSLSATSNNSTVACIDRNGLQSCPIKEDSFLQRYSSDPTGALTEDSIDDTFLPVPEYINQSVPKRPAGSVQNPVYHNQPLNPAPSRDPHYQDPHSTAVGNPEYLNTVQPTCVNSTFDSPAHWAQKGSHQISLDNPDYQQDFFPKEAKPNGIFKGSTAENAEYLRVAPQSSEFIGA
Sequence of EGFR V769_D770insGE (P00533 with tags, fused parts or gaps INS769GE): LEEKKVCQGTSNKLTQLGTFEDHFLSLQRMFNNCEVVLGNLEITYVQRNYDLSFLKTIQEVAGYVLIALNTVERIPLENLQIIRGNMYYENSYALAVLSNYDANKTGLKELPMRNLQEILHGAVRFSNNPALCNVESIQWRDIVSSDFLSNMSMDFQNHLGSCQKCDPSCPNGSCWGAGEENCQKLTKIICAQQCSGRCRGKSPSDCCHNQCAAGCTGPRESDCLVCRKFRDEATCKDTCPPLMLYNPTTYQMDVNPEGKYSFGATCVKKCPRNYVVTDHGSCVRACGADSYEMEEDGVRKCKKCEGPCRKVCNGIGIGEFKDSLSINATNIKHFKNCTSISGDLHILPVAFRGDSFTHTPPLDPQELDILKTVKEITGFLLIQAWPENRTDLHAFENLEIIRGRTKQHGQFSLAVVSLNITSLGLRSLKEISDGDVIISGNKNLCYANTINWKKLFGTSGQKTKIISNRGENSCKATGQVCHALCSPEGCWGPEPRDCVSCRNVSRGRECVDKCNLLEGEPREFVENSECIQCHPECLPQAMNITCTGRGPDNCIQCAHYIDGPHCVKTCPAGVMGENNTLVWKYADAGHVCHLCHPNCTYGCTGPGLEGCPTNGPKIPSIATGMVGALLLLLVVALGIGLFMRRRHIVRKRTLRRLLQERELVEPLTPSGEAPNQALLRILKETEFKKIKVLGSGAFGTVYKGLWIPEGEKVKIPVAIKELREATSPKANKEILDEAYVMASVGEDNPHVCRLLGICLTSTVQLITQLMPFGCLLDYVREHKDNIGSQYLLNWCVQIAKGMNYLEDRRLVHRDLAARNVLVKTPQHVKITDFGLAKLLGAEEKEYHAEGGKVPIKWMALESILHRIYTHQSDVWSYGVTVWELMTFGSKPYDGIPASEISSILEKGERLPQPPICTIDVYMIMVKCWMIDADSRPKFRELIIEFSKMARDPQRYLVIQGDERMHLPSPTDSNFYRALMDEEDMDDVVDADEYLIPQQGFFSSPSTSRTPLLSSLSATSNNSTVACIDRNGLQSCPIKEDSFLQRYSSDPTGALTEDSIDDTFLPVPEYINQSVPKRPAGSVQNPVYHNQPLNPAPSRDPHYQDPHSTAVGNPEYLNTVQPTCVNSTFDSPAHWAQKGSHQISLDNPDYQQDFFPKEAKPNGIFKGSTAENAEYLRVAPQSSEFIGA
T4 sequence (P00533 with tags, fused parts or gaps INS769ASV): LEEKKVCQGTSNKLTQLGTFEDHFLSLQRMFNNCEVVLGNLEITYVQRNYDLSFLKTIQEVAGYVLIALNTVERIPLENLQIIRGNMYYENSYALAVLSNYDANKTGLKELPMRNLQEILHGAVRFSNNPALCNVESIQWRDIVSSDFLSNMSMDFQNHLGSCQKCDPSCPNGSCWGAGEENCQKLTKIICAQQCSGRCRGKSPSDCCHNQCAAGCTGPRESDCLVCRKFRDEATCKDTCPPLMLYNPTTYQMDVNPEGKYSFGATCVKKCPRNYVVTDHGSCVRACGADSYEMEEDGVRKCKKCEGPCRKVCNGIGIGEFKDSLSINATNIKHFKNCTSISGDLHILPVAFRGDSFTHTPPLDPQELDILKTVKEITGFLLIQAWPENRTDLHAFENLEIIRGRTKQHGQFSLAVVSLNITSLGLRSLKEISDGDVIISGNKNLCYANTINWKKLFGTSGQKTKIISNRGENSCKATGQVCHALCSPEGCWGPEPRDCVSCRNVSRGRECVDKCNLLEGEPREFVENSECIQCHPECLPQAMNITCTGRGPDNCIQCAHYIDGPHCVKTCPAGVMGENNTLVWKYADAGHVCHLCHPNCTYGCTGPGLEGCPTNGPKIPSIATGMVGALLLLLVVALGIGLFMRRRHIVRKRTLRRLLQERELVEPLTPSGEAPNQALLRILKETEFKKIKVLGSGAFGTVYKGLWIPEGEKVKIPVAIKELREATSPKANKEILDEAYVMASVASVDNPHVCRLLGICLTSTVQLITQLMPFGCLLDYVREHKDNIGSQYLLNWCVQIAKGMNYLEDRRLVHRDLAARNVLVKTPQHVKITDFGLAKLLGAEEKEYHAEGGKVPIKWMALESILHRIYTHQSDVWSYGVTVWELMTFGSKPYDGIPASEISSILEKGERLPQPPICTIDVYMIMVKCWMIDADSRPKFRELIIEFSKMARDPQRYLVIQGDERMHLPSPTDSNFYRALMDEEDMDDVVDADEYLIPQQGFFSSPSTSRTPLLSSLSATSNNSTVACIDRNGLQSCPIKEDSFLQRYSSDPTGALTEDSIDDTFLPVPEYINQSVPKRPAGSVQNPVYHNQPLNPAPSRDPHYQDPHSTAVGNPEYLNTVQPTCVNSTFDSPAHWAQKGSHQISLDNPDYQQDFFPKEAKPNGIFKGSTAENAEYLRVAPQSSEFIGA
T6 sequence (P00533 with tags, fused parts or gaps INS773NPH): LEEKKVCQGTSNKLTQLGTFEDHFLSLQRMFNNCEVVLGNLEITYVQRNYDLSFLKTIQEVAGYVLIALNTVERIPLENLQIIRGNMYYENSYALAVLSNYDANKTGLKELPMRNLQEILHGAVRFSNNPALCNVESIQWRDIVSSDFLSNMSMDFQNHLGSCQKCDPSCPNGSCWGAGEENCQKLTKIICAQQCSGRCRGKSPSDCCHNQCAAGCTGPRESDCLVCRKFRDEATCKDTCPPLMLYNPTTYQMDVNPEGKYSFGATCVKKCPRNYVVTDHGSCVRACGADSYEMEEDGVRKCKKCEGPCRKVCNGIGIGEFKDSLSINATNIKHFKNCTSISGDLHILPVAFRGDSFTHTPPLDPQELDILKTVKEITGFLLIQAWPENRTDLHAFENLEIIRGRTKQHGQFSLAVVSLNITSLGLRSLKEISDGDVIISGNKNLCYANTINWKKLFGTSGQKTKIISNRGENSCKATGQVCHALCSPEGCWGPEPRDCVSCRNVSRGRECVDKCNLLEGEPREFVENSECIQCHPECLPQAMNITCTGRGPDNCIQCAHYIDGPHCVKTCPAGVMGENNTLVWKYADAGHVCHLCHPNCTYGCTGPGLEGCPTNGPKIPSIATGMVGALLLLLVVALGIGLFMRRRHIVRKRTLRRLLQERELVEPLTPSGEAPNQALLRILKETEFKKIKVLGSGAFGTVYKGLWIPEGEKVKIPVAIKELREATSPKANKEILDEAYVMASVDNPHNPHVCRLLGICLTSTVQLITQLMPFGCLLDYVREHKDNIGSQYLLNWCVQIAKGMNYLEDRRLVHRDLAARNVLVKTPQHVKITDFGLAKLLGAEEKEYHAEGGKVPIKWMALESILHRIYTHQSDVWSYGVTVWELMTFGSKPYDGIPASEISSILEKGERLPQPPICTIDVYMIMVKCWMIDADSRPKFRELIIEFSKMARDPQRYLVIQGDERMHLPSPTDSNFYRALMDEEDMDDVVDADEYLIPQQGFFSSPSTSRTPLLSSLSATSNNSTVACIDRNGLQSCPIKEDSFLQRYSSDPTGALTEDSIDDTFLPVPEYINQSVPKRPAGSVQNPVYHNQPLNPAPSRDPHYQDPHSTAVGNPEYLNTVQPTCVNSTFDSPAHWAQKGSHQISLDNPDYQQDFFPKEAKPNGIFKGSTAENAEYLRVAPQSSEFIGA

Q: With C=CC(=O)Nc1cc(Nc2nccc(-c3cnc4c(C)cccn34)n2)c(OC)cc1N(C)CCN(C)C [A13, N-(2-((2-(dimethylamino)ethyl)(methyl)amino)-4-methoxy-5-((4-(8-methylimidazo[1,2-a]-pyridin-3-yl)pyrimidin-2-yl)amino)phenyl)acrylamide] as the molecule, how does the IC50 (EGFR L861Q) read?
A: Its IC50 is 0.36 nM.

Q: And the IC50 (EGFR A763_Y764insFQEA)?
A: The IC50 was 0.73 nM.

Q: And the IC50 (EGFR V769_D770insGE)?
A: Its IC50 is 0.62 nM.

Q: And the IC50 (EGFR D770_N771insNPG)?
A: The IC50 was 0.42 nM.

Q: And the IC50 [1]?
A: The IC50 was 2 nM.

Q: What about the IC50 [2] of the same molecule?
A: Its IC50 is 5 nM.

Q: What about the IC50 [3] of the same molecule?
A: Its IC50 is 4 nM.

Q: And the IC50 [4]?
A: Its IC50 is 73 nM.

Q: And the IC50 [5]?
A: The IC50 was 29 nM.

Q: And the IC50 [6]?
A: The IC50 was 62 nM.

Q: And the “TV (mm^3) on Day 0” value ([7]; 20 mg/kg group)?
A: Its value is 86 ± 6 mm^3.

Q: And the “RTV (relative tumor volume)” value [7, 9]?
A: The value was 517 ± 61.

Q: And the “TV (mm^3) on Day 21” value [7, 9]?
A: Its value is 602 ± 67 mm^3.

Q: And the “TV (mm^3) on Day 0” value ([7]; 40 mg/kg group)?
A: Its value is 89 ± 6 mm^3.

Q: And the “RTV (relative tumor volume)” value [7, 10]?
A: The value was 281.

Q: And the “TV (mm^3) on Day 21” value [7, 10]?
A: The value was 370 ± 31 mm^3.

Q: What about the “TGI (tumor growth inhibition)” value ([7]; 40 mg/kg orally once daily for 21 days, vs. vehicle control (P=0.016)) of the same molecule?
A: The value was 61%.

Q: And the “TV (mm^3) on Day 0” value ([7]; 80 mg/kg group)?
A: Its value is 86 mm^3 and 86 ± 6 mm^3.

Q: And the “TV (mm^3) on Day 21” value ([7]; 80 mg/kg orally once daily for 21 days)?
A: The value was 36 mm^3 and 36 ± 9 mm^3.

Q: And the “TGI (tumor growth inhibition)” value ([7]; 80 mg/kg orally once daily for 21 days, vs. vehicle control (P<0.001))?
A: Its value is 107%.

Q: And the Tolerability ([7]; 20, 40, and 80 mg/kg orally once daily for 21 days in tumor-bearing mice)?
A: The Tolerability was “well tolerated”.

Q: What about the CLz [8] of the same molecule?
A: Its CLz is 353 ± 30 mL/min/kg.

Q: And the Vz [8]?
A: Its Vz is 52 ± 17 L/kg.

Q: And the Cmax ([8]; Balb/c, mouse, blood)?
A: Its Cmax is 1380 ± 432 ng/mL.

Q: And the half-life ([8]; Balb/c, mouse, blood)?
A: Its half-life is 1.7 ± 0.6 h.

Q: And the AUC(0-t) ([8]; Balb/c, mouse, blood, 0-24 h)?
A: Its AUC(0-t) is 3600 ± 273 ng·h/mL.
